Data on six compounds can be found in patent publication US8957042B2, “Cancer treatment targeting non-coding RNA overexpression” (The Texas A&M University System, priority 2012, dated 2015).

In data set [1] the test system is Panc1 cells. Description: Cell proliferation (cell counting) of Panc1 cells after siRNA transfection. The data set is classed as cell-based, human. The conditions noted are these: vs control oligonucleotide. How it is done:
Cell proliferation and fluorescence-activated cell sorting analysis and apoptosis: Cells were seeded in 12-well plates and transfected with either appropriate siRNA or expression vectors, and cell numbers were counted at the indicated times using a Coulter Z1 cell counter (Beckman Coulter, Fullerton, Calif., USA). For fluorescence-activated cell sorting analysis, after pancreatic cancer cells were transfected with siRNAs for either control or HOTAIR, cells were stained with propidium iodide solution and were analyzed on a FACS Calibur Flow Cytometer (Becton Dickinsin Systems, Franklin Lakes, N.J., USA).

Another data set deals with Panc28 cells. Description: Cell proliferation of Panc28 cells after siRNA transfection. Conditions: 48 and 72 hours, vs siLamin. The data set is classed as cell-based, human.
Data set [2] concerns cyclin D1 and cyclin E. Put plainly: Cyclin D1 and cyclin E mRNA in Panc1 cells. It is filed as cell-based, human. Conditions: Panc1 cells (FIG. 2C). How it is done:
(§1) RNA isolation and quantitative PCR: Total RNA was extracted either from pancreatic cancer cell lines or from tissue samples. Five control and siRNA HOTAIR-transfected tissue samples were analyzed, respectively, from xenograft study using mirVana RNA isolation kit from Ambion (Austin, Tex., USA), and quantitative PCR was carried out using iCycler IQTM real-time PCR detection system (Bio-Rad, Hercules, Calif., USA) after reverse transcription to cDNAs. The RT primer sets for HOTAIR, PCDHB5, PCDH10, JAM2, LAMB3, ABL2, SNA1 and LAMC2 were used as described previously (Gupta, R. A., et al., “Long Non-Coding RNA HOTAIR Reprograms Chromatin State to Promote Cancer Metastasis,” Nature 464:1071-1076, 2010). The forward and reverse oligonucleotide primer sequences specifically for HOTAIR amplification and detection are also set forth herein as SEQ ID NOS:1 and 2, respectively.

For data set [3], the system named is cyclin D1 and cyclin E. Description: Cyclin D1 and cyclin E mRNA in L3.6pL cells. It is filed as cell-based. Conditions: L3.6pL cells (FIG. 2D). How it is done:
as §1

Data set [4] concerns Panc1 cells. Description: Annexin V apoptosis assay, Panc1. The data set is classed as cell-based, human. Conditions: Panc1 cells transfected with siRNA. How it is done:
(§2) Boyden chamber cell invasion and apoptosis assays: Pancreatic cancer cells were transfected with either siRNAs (HOTAIR vs. control) or expression vectors (empty vs. HOTAIR) and cell invasion assay was performed as described previously. Cells were transfected with siCT or siHOTAIR and after 72 h, cells were stained for Annexin V using the Vibrant apoptosis assay kit as described.

Data set [5] concerns L3.6pL cells. Put plainly: Annexin V apoptosis assay, L3.6pL. It is filed as cell-based. The conditions noted are these: L3.6pL cells transfected with siRNA. How it is done:
as §2

Data set [6] has as its system L3.6pL cells. Put plainly: Xenograft of siRNA-transfected L3.6pL cells in nude mice. It is filed as in vivo. The conditions noted are these: vs siCT. The method, then:
Xenograft study: L3.6pL cells (6×10^4 ml) were transfected with 100 nM siHOTAIR or siCT using Lipofectamine. After 48 h cells were collected and 1×10^6 cells injected into either side of the flank area of female nude mice (Harlan), and tumor volumes and weights were determined in mice from the siHOTAIR (six mice) or siCT (six mice) groups as described, and siHOTAIR levels were determined by realtime PCR. Tumor volumes were measured (0.5×length×width^2) and after 16 days, the mice were killed and tumor weights were measured and also used for further analysis as described.
Immunohistochemistry and TUNEL assay: Tissue sections were deparaffinized in xylene and treated with graded series of alcohol and rehydrated in PBS. Antigen retrieval was done using 10 mM sodium citrate (pH 6.0-6.2) and endogenous peroxidase was blocked by 3% hydrogen peroxide in methanol for 6 min. Slides were then incubated with blocking serum (Vecstatin ABC Elite kit, Vector Laboratories, Burlingame, Calif., USA) for 45 min. Samples were then incubated overnight with Ki-67 and PCNA antibodies at 4° C. Sections were then washed in PBST and then incubated with biotinylated secondary antibody followed by streptavidin. The brown staining specific for antibody binding was developed by exposing the avidin and biotinylated peroxidase complex to diaminobenzidine reagent (Vector Laboratories) and sections were then counterstained with hematoxylin (Vector Laboratories). The in situ cell death detection POD kit was used for the TUNEL assay according to the instructions in the protocol for tissue sections.

The subject of the next data set is GDF15 promoter. Put plainly: GDF15 promoter luciferase assay in Panc1 cells. The data set is classed as cell-based, human. The method, then:
siRNA transfection and luciferase assay: Pancreatic cancer cells were transfected with 100 nM of control siRNA or HOTAIR siRNA I (available from Sigma Aldrich, catalogue No. SASI_Hs02—00380445) or HOTAIR siRNA II (available from Sigma Aldrich, catalogue No. SASI_Hs02—00380446) using Lipofectamine 2000 (Invitrogen, Grand Island, N.Y., USA). Panc1 cells were cotransfected with control siRNA or HOTAIR siRNA I and HOTAIR II, and various length of GDF15 luciferase constructs. Luciferase activities were measured after 24 h as described previously. MISSION siRNAs for EZH2 and Suz12 were also purchased from Sigma Aldrich.

The next data set has as its system HOTAIR. Description: HOTAIR expression (RNA levels, real time PCR) in Panc1 cells. It is filed as cell-based, human. The conditions noted are these: for HOTAIR expression after siRNA transfection: vs siCT. How it is done:
as §1
Background: In qPCR the cycle at which signal appears reflects the starting amount.

Data set [7] concerns Sp1, Sp3, and Sp4 proteins. Put plainly: Sp1, Sp3 and Sp4 protein expression in Panc1 cells. The data set is classed as cell-based, human.
A further data set deals with ZBTB10. Description: ZBTB10 expression in Panc1 cells. The data set is classed as cell-based, human.
Another data set has as its system miR-27a. Description: miR-27a expression in Panc1 cells. The data set is classed as cell-based, human.
Data set [8] has as its system MALAT-1. Put plainly: MALAT-1 expression (RNA abundance) in Panc1 cells. It is filed as cell-based, human. The conditions noted are these: doses of 5.0 and 7.0 μM. The method, then:
(§3) MALAT-1 RNA was detected using forward and reverse oligonucleotides with sequences set forth herein as SEQ ID NOS:7 and 8. Furthermore, MALAT-1 can be detected in serum obtained from pancreatic cancer patients (not shown) and this correlates with the reported high expression of MALAT-1 in pancreatic tumors compared to non-tumor tissues. Subsequent MALAT-1 knockdown studies with RNA interference were conducted using two oligonucleotides (siMALAT-1a and siMALAT-1b), the sequences of which are set forth herein as SEQ ID NOS:5 and 6, respectively. […] Thus, MALAT-1 and MALAT-1-regulated genes play a role in pancreatic cancer cell growth. […] Additional studies on the role of MALAT-1 in cell survival and kinase signaling were performed, because both pathways are affected, in part, by overexpression of growth factors and activating RAS mutations. These aspects are common in many pancreatic cancer cell lines and tumors.

Data set [9] deals with MALAT-1. Description: MALAT-1 expression (RNA abundance) in L3.6pL cells. It is filed as cell-based. Conditions: doses of 5.0 and 7.0 μM. How it is done:
as §3

A further data set relates to ROS. Description: ROS induction in pancreatic cancer cells. It is filed as cell-based. Conditions: pancreatic cancer cells (data not shown).
The next data set concerns miR-27a, ZBTB10. Conditions: colon cancer cells; cited from earlier work.
For another data set, the system named is Sp1, Sp3, and Sp4 mRNA. Put plainly: Sp1, Sp3, Sp4 mRNA knockdown in Panc1 cells. The data set is classed as cell-based, human. Conditions: vs siCT. An excerpt:
(§4) Using short interfering RNAs corresponding to SpTF genes for RNAi assays, expression of the SpTF were successfully knocked down. Sp1 was knocked down using an oligonucleotide with a sequence set forth herein as SEQ ID NO:19. Sp3 was knocked down using an oligonucleotide with a sequence set forth herein as SEQ ID NO:20. Sp4 was knocked down using an oligonucleotide with a sequence set forth herein as SEQ ID NO:21. […] FIG. 6B. In this assay, HOTAIRM was amplified and detected using forward and reverse oligonucleotide sequences set forth herein as SEQ ID NOS:3 and 4, respectively. Additionally, HOTTIP was amplified and detected using forward and reverse oligonucleotide sequences set forth herein as SEQ ID NOS:10 and 11, respectively.

The subject of a further data set is HOTAIRM1. Put plainly: HOTAIRM1 expression in Panc1 cells. It is filed as cell-based, human.
Description: as §4

In the next data set the test system is HOTTIP. Put plainly: HOTTIP expression in Panc1 cells. The data set is classed as cell-based, human.
Description: as §4

The subject of data set [10] is miR-21 and miR-181b. Description: Oncogenic miR levels in L3.6pL cells (real time PCR). It is filed as cell-based. Conditions: 100 nM siRNA. The method, then:
(§5) Panc28 and L3.6pL pancreatic cancer cell lines were seeded (6×10^4 per well) in 6-well plates in DMEM:Ham's F-12 medium supplemented with 2.5% charcoal-stripped FBS without antibiotic and left to attach for 1 d. Single and triple Sp siRNA knockdown (iSp1, iSp3, iSp4) along with iLamin as control was performed using LipofectAMINE™2000 transfection reagent as per the manufacturer's protocol to attain 100 nM concentration of siRNA in the media. Cells were left with the transfection mixture for 24-48 hrs before changing to fresh 2.5% DMEM-F12 media. Cells were harvested after 60-72 hrs for protein, mRNA or miRNA. miRNA was extracted using mirVana™ miRNA extraction kit (Applied Biosystems) according to manufacturer's protocol and was used to assess expression of various non-coding RNAs using different primers and determined by real-time PCR.

Data set [11] concerns miR-21 and miR-181b. Put plainly: Oncogenic miR levels in Panc28 cells (real time PCR). It is filed as cell-based, human. The conditions noted are these: 100 nM siRNA. How it is done:
as §5

“siMALAT-1b: siRNA for MALAT-1 knockdown, SEQ ID NO:6 (GAAUUCCGGUGAUGCGAGU; listed as RNA, chemistry not given here)”: in the data set with Panc1 cells [1], the “cell proliferation / cell growth” value is given as “significant inhibition”. In addition, the cell proliferation result in the data set with Panc28 cells is on record as “significant inhibition”.
In the case of “siMALAT-1a: siRNA for MALAT-1 knockdown, SEQ ID NO:5 (GGCAAUAGAGGCCCUUAA; listed as RNA, chemistry not given here)”, the “cell proliferation / cell growth” value with Panc1 cells [1] was “significant inhibition”. Also, the cell proliferation entry in the data set on Panc28 cells is recorded as “significant inhibition”.
In the case of “siHOTAIR II: HOTAIR siRNA II, Sigma Aldrich catalogue No. SASI_Hs02—00380446 (UGAACACGACUUGGUGUGGTT; chemistry not given here)”, the “expression of cyclin D1 and cyclin E” value is recorded as “decreased expression” in the data set with cyclin D1 and cyclin E [2]; “decreased expression” in the data set on cyclin D1 and cyclin E [3]. Also, the “Annexin V staining (apoptosis)” value with Panc1 cells [4] and in the data set with L3.6pL cells [5] was “enhanced” in each case. For the same compound, the pancreatic tumor weight entry with L3.6pL cells [6] (after 16 days) is reported as “dramatic decrease”. The “HOTAIR expression in tumors” value in the data set with L3.6pL cells [6] (end of study) was “dramatic decrease”. Further, the pancreatic tumor volume result with L3.6pL cells [6] (up to 16 days) was “dramatic decrease”. The “luciferase activity, GDF15 promoter constructs -3500 to +41, -1086 to +41 and -474 to +41” value with GDF15 promoter was “decreased”.
Turning to `COC(=O)[C@@]1(C)CCC2(C)CC[C@]3(C)C(=CC(=O)[C@@H]4C5(C)C=C(C#N)C(=O)C(C)(C)[C@@H]5CCC43C)C2C1` (stereo partly drawn) [CDODA-Me, methyl 2-cyano-3,11-dioxo-18β-olean-1,12-dien-30-oate], in the data set with HOTAIR (drug treatment, 24 hrs (FIG. 7B)), the HOTAIR expression entry is “decreased”. Moreover, the “Sp1, Sp3, and Sp4 proteins” value in [7] (24 hrs (FIG. 7A)) is “downregulate”. The “Sp proteins after 48 hrs” value in [7] (48 hrs) was “almost non-detectable”. In data set [7] (cotreatment with DTT or GSH), the “induction of ZBTB10, downregulation of miR-27a and repression of Sp1, Sp3, Sp4 after cotreatment with antioxidants” value was “inhibited”. Besides, the ZBTB10 expression result with ZBTB10 is on record as “induction”. Further, the miR-27a result in the data set with miR-27a is “downregulation”. In addition, the MALAT-1 expression result with MALAT-1 [8] and in the data set on MALAT-1 [9] was “significantly downregulate” throughout. In the data set on ROS, the ROS entry was “induce ROS”. Further, the ZBTB10 entry in the data set on miR-27a, ZBTB10 was “increased”. In the data set with miR-27a, ZBTB10, the “microRNA (miR)-27a” value is reported as “decreased”.
Take “siSp4: siRNA for Sp4, sequence SEQ ID NO:21 (GCAGUGACACAUUAGUGAGCTT; chemistry not given here)”: in the data set with HOTAIR, the “HOTAIR expression after siRNA transfection” value was “significant decrease”. Moreover, the “mRNA level of the respective Sp (Sp1, Sp3, Sp4)” value in the data set on Sp1, Sp3, and Sp4 mRNA is “decreased”. Moreover, the HOTAIRM1 expression entry with HOTAIRM1 was “significant decrease”. The HOTTIP expression result in the data set with HOTTIP is on record as “significant decrease”. In the data set on miR-21 and miR-181b [10], the miR-21 expression result is “decrease” and the miR-181b expression entry is recorded as “decrease”. In the data set on miR-21 and miR-181b [11], the miR-21 expression entry is “decrease” and the miR-181b expression entry was “decrease”.
With “siSp3: siRNA for Sp3, sequence SEQ ID NO:20 (GCGGCAGGUGGAGCCUUCACUTT; chemistry not given here)”, the “HOTAIR expression after siRNA transfection” value in the data set with HOTAIR is listed as “significant decrease”. In addition, the “mRNA level of the respective Sp (Sp1, Sp3, Sp4)” value with Sp1, Sp3, and Sp4 mRNA is recorded as “decreased”. Moreover, the HOTAIRM1 expression entry in the data set with HOTAIRM1 was “significant decrease”. In the data set with HOTTIP, the HOTTIP expression entry is given as “significant decrease”. Also, in the data set on miR-21 and miR-181b [10], the miR-21 expression result is on record as “decrease” and the miR-181b expression result was “decrease”. Besides, in the data set with miR-21 and miR-181b [11], the miR-21 expression entry is given as “decrease” and the miR-181b expression entry was “decrease”.
